From US20120015925A1, “NOVEL BENZOTHIAZEPINE AND BENZOTHIEPINE COMPOUNDS” (ASAHI KASEI PHARMA CORPORATION, priority 2004, published 2012)
pIC50: −log10 of the molar value.

Columns and labels:
[1] = test system: rats dosed cholic acid; test: Lowering effect on bile acid concentrations in portal vein blood in rats dosed cholic acid; format: in vivo, rat
Method: In the present Test Example, a lowering effect on bile acid concentrations in portal vein blood in rats dosed cholic acid was evaluated according to the method described in Jpn. Pharmacol. Ther., Vol. 24 Supplement, 1996, 103(S-577)-110(S-584).
That is, SD (IGS) strain male rats at 7 to 9 weeks of age were fasted one day before the administration date. […] The blood was collected from the portal vein 2 hours after the forced oral administration, and a total bile acid value in serum was measured to examine the effect of the test compound (n=6). As a control, another group (n=6) merely received cholic acid (200 mg/kg), to which the same procedure was applied. The cholic acid value was measured using the commercially available kit (brand name: Total Bile Acid-Test Wako, supplied form Wako Pure Chemical Industries). Defining the value in the control group to which no test compound had been administered as being 100%, a reduction rate (%) of the bile acid value when a certain amount of the test compound had been administered was calculated.

[2] = test system: rats dosed bile acid; test: Model for hepatic disorder associated with cholestasis, Protocol B (bile acid without partial ligation): AST, ALT, ALP; format: in vivo, rat; settings: Table 13, Protocol B, ursodeoxycholic acid 50 mg/kg oral twice per day for 3.5 days, N=8, mean±standard error
Text: (§1) In the present Test Example, a model for the hepatic disorder caused by partial ligation of the bile duct was employed with reference to Kanno's method (Liver, 43, Suppl(1):A126, 2002).
(§2) That is, to the SD (IGS) strain male rats at 7 to 10 weeks of age, the partial ligation of the bile duct was given with opening the abdominal cavity under anesthesia with pentobarbital. Before the operation, the blood was collected from femoral vein, in order to obtain the value before the administration. From the day after the operation, 200 mg/kg of bile acid and the test compound were orally administered forcibly twice per day for 3.5 days (Protocol A). Without giving the partial ligation of the bile duct, 200 mg/kg of bile acid and the test compound were also orally administered forcibly twice per day for 3.5 days (Protocol B). In both cases, the test compound was dissolved or suspended in distilled water or an aqueous solution of 1% HCO 60 (Nippon Chemicals). To the control group, saline was administered. As comparative examples, 25 mg/kg of cholestyramine (supplied from Sigma) or 50 mg/kg of ursodeoxycholic acid (supplied from Mitsubishi Pharma) was administered. For considering the effect of the operation, sham operation (sham group) was performed in some cases. The blood was collected from the abdominal aorta 6 hours after the drug administration on the final day of the experiment. AST (GOT), ALT (GPT) and ALP in the blood were measured using measurement kits (GOT II-HA Test Wako, GPT II-HA Test Wako and Alkaline Phosphor HA Test Wako, all were supplied from Wako Pure Chemical Industries) and using an automatic analyzer (Nitech ANALAYZER SUPER Z818).

[3] = test system: rats with partial ligation of the bile duct dosed bile acid; test: Model for hepatic disorder associated with cholestasis (partial bile duct ligation model), Protocol A: AST, ALT, ALP; format: in vivo, rat; settings: Table 11, Protocol A, ursodeoxycholic acid 50 mg/kg oral twice per day for 3.5 days, N=8, mean±standard error
Text: as §1, §2

[4] = biological target: T1, human IBAT (Homo sapiens, UniProt Q12908); test: In vitro assay using Cos 7 cells, transiently expressed human IBAT; format: cell-based; settings: 37° C., 60 minutes
T1 sequence (Q12908 1-348): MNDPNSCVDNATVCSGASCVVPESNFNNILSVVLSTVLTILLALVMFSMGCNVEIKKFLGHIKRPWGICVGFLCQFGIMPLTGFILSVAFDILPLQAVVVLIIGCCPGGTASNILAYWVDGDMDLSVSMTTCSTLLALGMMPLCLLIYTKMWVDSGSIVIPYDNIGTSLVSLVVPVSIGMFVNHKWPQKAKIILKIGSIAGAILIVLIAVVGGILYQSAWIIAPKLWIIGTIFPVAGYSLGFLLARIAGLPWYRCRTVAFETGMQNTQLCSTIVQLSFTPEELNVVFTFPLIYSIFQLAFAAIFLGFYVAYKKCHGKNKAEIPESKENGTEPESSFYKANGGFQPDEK
Method in brief: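 Cos 7 cells transfected with human or rat IBAT cDNA were assayed one day later in Hanks buffer with 25 mM glucose and 10 mM HEPES (pH 7.4) containing compound. [^3H]-taurocholate (8 μM final) uptake ran 60 min at 37° C. Cells were washed with 1 mM taurocholate, lysed in NaOH, and counted by liquid scintillation.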

[5] = test system: Caco-2 cell; test: Gastrointestinal toxicity: cytotoxicity against Caco-2 cell (LDH activity); format: cell-based, human; settings: 2 hours, LDH activity in medium relative to cell lysis agent = 100%
Method: That is, 10,000 cells/well of Caco-2 cells (purchased from ATCC) were seeded in a 96-well plate [MEM-E medium, 10% FBS (Fetal Bovine Serum), 1% NEAA (Non Essential Amino Acid) solution, supplied from Gibco]. After culturing for 48 hours, the test compound diluted with the medium was added to each well. After 2 hours, 50 μL of the medium was collected, and an LDH activity in the medium was measured using an LDH activity measurement kit (CytoTox96 Non-Radioactive Cytotoxicity Assay, supplied from Promega). Defining the LDH activity of the Caco-2 cells treated with a cell lysis agent as being 100%, the relative activity was calculated as a index of the cytotoxicity.

[6] = biological target: T2, rat IBAT (Rattus norvegicus, UniProt Q62633); test: In vitro assay using Cos 7 cells, transiently expressed rat IBAT; format: cell-based; settings: 37° C., 60 minutes
T2 sequence (Q62633 1-348): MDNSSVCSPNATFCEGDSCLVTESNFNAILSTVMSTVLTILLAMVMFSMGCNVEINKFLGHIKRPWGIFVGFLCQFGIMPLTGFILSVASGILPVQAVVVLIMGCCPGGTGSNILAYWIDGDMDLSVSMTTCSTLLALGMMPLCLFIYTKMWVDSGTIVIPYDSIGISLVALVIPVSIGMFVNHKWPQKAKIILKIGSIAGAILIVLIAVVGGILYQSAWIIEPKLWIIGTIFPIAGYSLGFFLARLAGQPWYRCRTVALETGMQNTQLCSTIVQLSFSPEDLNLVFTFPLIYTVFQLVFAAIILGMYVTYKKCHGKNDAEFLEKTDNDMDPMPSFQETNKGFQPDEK
Method: In the present Test Example, an in vitro assay of compounds using Cos 7 cells as to inhibitory activity on transiently expressed human IBAT or rat IBAT transporter was performed according to the method described in Am. J. Physiol., 274, G157-169.
That is, […] cells/well of Cos 7 cells were seeded in a 24-well plate, and after one day, the cells were transfected with 0.3 μg/well of cDNA of human IBAT or rat IBAT using FuGENE6 (supplied from Roche). After culturing for one day after the transfection, the cells were washed once with the assay buffer, i.e., Hanks buffer containing 25 mM glucose and 10 mM HEPES (pH 7.4). The assay buffer was then replaced with the assay buffer containing the test compound. [^3H]-Taurocholate at a final concentration of 8 μM was added thereto and incubated at 37° C. for 60 minutes so that [^3H]-taurocholate was taken into Cos 7 cells by the action of human IBAT or rat IBAT. The cells were washed twice with the assay buffer containing 1 mM taurocholate, and subsequently lysed with 0.2 M NaOH to stop the reaction. The cell lysate was added to 4 mL of liquid scintillation cocktail, which was then thoroughly vortexed. Then the radioactivity was measured using the liquid scintillation counter.

[7] = test system: rats fed cholesterol food; test: Blood cholesterol lowering effect in rats fed cholesterol food; format: in vivo, rat; settings: 0.3 mg/kg per administration, oral, twice per day; SD (IGS) male rats; serum 3 hours after final administration
Method: In the present Test Example, a blood cholesterol lowering effect on rats fed cholesterol food was evaluated according to the method described in J. Lipid Res., 1995, 36, 1098-1105.
That is, the food containing 0.4% cholesterol and 0.5% bile acid was given to SD (IGS) strain male rats at 7 to 9 weeks of age for 5 days in advance of the test date, to increase blood cholesterol levels. The rats in which the blood cholesterol level had been obviously elevated from the level before loading the cholesterol food were selected as the subjects in the test. Colestimide (brand name: Cholebine 70% granules, supplied from Mitsubishi Tokyo Pharmaceutical Inc.) which is an anion exchange resin drug was suspended in distilled water, and the test compound was dissolved or suspended in distilled water. They were orally administered forcibly twice per day everyday from the starting date (each n=8). The blood was collected from jugular vein 3 hours after the drug administration on the final day of the experiment, and the cholesterol level in serum was measured to examine the effect of the test compound. As a control, another group (n=8) was merely fed cholesterol food, to which distilled water (1 mL/kg) was administered and the same procedure was applied. The total cholesterol value and the HDL cholesterol value were measured using commercially available kits. The value obtained by subtracting the HDL cholesterol value from the total cholesterol value was regarded as an LDL+VLDL cholesterol value.

[8] = test system: Caco-2 cells; test: Measurement of permeability through Caco-2 cell; format: in vitro ADME, human; settings: 2 hours
Method: Permeability of the compound described in Examples through Caco-2 cells was studied with reference to Artursson Per et al.'s method (Journal of Pharmaceutical Sciences, 79(6): 476-482:1990).
Transwell cell culture chamber (Costar) having a membrane filter coated with collagen (3 μm pores, 0.33 cm^2 growth area) was placed on a 24-well plate. Caco-2 cells (purchased from ATCC) were seeded at the amount of 6.6×10^4 cells/filter (2×10^5 cells/cm^2) (D-MEM medium, 10% FBS (Fetal Bovine Serum), 0.1 mM NEAA (Non Essential Amino Acid), 100 U/mL penicillin, 100 μg/mL streptomycin, supplied from Gibco, and 25 mM glucose). Each Transwell cell culture chamber was placed in each well in a 24-well plate. 0.75 mL of the medium was filled in an external chamber and 0.15 mL of the medium was filled in an internal chamber. The medium was changed every 2 to 3 days, and 18 to 25 days after seeding when a single layer of Caco-2 cells was formed, the cells were used for the test.
In the test for examining the permeability of the compound, the Caco-2 cells cultured in the chamber were used. The internal and external chamber solutions were replaced twice with Hanks balanced salt solution (HBSS) containing 25 mM glucose, 10 mM Hepes and 0.05% Tween 80. […] A permeability coefficient (Papp) was calculated from the formula Papp=dQ/dt/(Co×A). […]

[9] = 0.1 mg/kg oral with cholic acid 200 mg/kg, portal vein serum total bile acid 2 hours after, control = 100%, surfactant HCO-60 (##)

pIC50 ([4]; [3H]-taurocholate 8 μM uptake)	pIC50 ([6]; [3H]-taurocholate 8 μM uptake)	SMILES	CELL TOXICITY AGAINST Caco2 10 μM [5] [%]	CELL TOXICITY AGAINST Caco2 30 μM [5] [%]	BILE ACID REDUCTION RATE (%) IN RAT MODEL WITH CHOLIC ACID LOADING [1, 9] [%]	LDL + VLDL REDUCTION RATE (%) IN CHOLESTEROL FED RAT MODEL (THERAPEUTIC MODEL) [7] [%]	other results
		C[C@H](CCC(=O)O)[C@H]1CC[C@H]2[C@@H]3[C@@H](O)C[C@@H]4C[C@H](O)CC[C@]4(C)[C@H]3CC[C@]12C [Comparative Example 2, ursodeoxycholic acid, reference compound]					BILE ACID REDUCTION RATE (%) IN RAT MODEL WITH CHOLIC ACID LOADING ([1]; 0.1 mg/kg oral, surfactant Tween 20 0.05%, cholic acid 200 mg/kg, portal vein blood 2 hours after administration): 3%; ALT ([2]; control group 82 ± 17): 62 ± 9 IU/L; AST ([2]; control group 157 ± 35): 109 ± 11 IU/L; ALP ([2]; control group 593 ± 77): 453 ± 58 IU/L; ALT ([3]; control group 200 ± 81): 98 ± 25 IU/L; AST ([3]; control group 400 ± 160): 256 ± 64 IU/L; ALP ([3]; control group 1120 ± 410): 785 ± 120 IU/L
7.55	8.05	CCCCC1(CCCC)CS(=O)(=O)c2ccc(N(C)C)cc2C(c2cccc(NC(=S)CCCCC[N+]34CCC(c5ccccc5)(CC3)CC4)c2)N1.[Br-] (stereo not drawn) [EXAMPLE 3853]	<1	<1			BILE ACID REDUCTION RATE (%) IN RAT MODEL WITH CHOLIC ACID LOADING ([1]; 0.1 mg/kg oral, surfactant HCO-60 0.1%, cholic acid 200 mg/kg, portal vein blood 2 hours after administration): 36%; CELL TOXICITY AGAINST Caco2 3 μM ([5]; 3 μM): <1%
		CCCCC1(CCCC)CS(=O)(=O)c2ccc(N(C)C)cc2C(c2cccc(NC(=S)Nc3ccc(C[N+]45CCC(c6ccccc6)(CC4)CC5)c(C)c3)c2)N1.[Br-] (stereo not drawn) [EXAMPLE P341]	<1	<1	32	33	pIC50 ([4]; [3H]-taurocholate 8 μM): 7.66; pIC50 ([6]; [3H]-taurocholate 8 μM): 8.37
7.82	8.32	CCCCC1(CCCC)CS(=O)(=O)c2ccc(N(C)C)cc2C(c2cccc(NC(=S)Nc3ccc(C[N+]45CCC(c6ccccc6)(CC4)CC5)cc3F)c2)N1.[Br-] (stereo not drawn) [EXAMPLE P342]	<1	<1	39	46	
		CC(C)NCC(O)COc1cccc2ccccc12 (stereo not drawn) [Propranolol]					PERMEATION RATIO (PERMEATION × 10^−6 cm/s) ([8]; 100 μM in internal chamber, HBSS pH 7.4, 37° C.): 29.4 × 10^−6 cm/s; permeability coefficient (Papp) through Caco-2 cells ([8]; 100 μM, 37° C., pH 7.4): high permeability coefficients
